Assay results reported in patent US8030498B2, “Benzoylpyrazole compounds and herbicides containing them” (Ishihara Sangyo Kaisha, Ltd., priority 2005, dated 2011).

Experiments:
[1] = tested on: barnyardgrass (Echinochloa crus-galli L.); assay: Test Example 1: foliar treatment, growth inhibition rate, barnyardgrass; assay type: in vivo; conditions: 31 g/ha active ingredient, visually observed 17th to 23rd day after application; for pest or weed control at 31 g/ha: Echinochloa crus-galli
Procedure, shortened: (§1)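 Plants grown in upland soil in pots were sprayed on the foliage at set leaf stages (corn 2.0–3.5, greenfoxtail 1.0–3.0, rice 1.0–2.5, wheat 1.7–3.4 leaves) with wettable powder or emulsifiable concentrate formulations diluted in water at 500 L/ha plus 0.1 vol % spreader. Growth inhibition was scored visually 17–23 days later.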

[2] = tested on: crabgrass (Digitaria sanguinalis L.); assay: Test Example 1: foliar treatment, growth inhibition rate, crabgrass; assay type: in vivo; conditions: 31 g/ha active ingredient, visually observed 17th to 23rd day after application; for pest or weed control at 31 g/ha: Digitaria sanguinalis
Procedure, shortened: (§2)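 Visual scoring of growth inhibition, 0% (untreated) to 100% (complete kill), on days 17–23 following post-emergence spray of formulated compound in water (500 L/ha, 0.1 vol % spreader); plants treated at set leaf stages, e.g. corn 2.0–3.5, wheat 1.7–3.4.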

[3] = tested on: greenfoxtail (Setaria viridis L.); assay: Test Example 1: foliar treatment, growth inhibition rate, greenfoxtail; assay type: in vivo; conditions: 31 g/ha active ingredient, visually observed 17th to 23rd day after application; for pest or weed control at 31 g/ha: Setaria viridis
Procedure, shortened: (§3)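 Post-emergence foliar spray, pot test; WP/EC formulation in water at 500 L/ha, + 0.1 vol % spreader; leaf stage at treatment: corn 2.0–3.5, green foxtail 1.0–3.0, rice 1.0–2.5, wheat 1.7–3.4; visual % inhibition at 17–23 DAT (0 = untreated, 100 = dead).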

[4] = tested on: redroot pigweed (Amaranthus retroflexus L.); assay: Test Example 1: foliar treatment, growth inhibition rate, redroot pigweed; assay type: in vivo; conditions: 31 g/ha active ingredient, visually observed 17th to 23rd day after application
Procedure, shortened: as §2

[5] = tested on: prickly sida (Sida spinosa L.); assay: Test Example 1: foliar treatment, growth inhibition rate, prickly sida; assay type: in vivo; conditions: 31 g/ha active ingredient, visually observed 17th to 23rd day after application
Procedure, shortened: as §2

[6] = tested on: velvetleaf (Abutilon theophrasti MEDIC.); assay: Test Example 1: foliar treatment, growth inhibition rate, velvetleaf; assay type: in vivo; conditions: 31 g/ha active ingredient, visually observed 17th to 23rd day after application; for pest or weed control at 31 g/ha: Abutilon theophrasti
Procedure, shortened: as §1

rice (Oryza sativa L.) = assay: Test Example 1: foliar treatment, growth inhibition rate, rice; assay type: in vivo; conditions: 31 g/ha active ingredient, visually observed 17th to 23rd day after application; for pest or weed control at 31 g/ha: Oryza sativa
Procedure, shortened: as §3

wheat (Triticum spp.) = assay: Test Example 1: foliar treatment, growth inhibition rate, wheat; assay type: in vivo; conditions: 31 g/ha active ingredient, visually observed 17th to 23rd day after application; for pest or weed control at 31 g/ha: Triticum
Procedure, shortened: as §3

corn (Zea mays L.) = assay: Test Example 1: foliar treatment, growth inhibition rate, corn; assay type: in vivo; conditions: 31 g/ha active ingredient, visually observed 17th to 23rd day after application; for pest or weed control at 31 g/ha: Zea mays
Procedure, shortened: as §3

[7] = tested on: soybean (Glycine max Merr.); assay: Test Example 1: foliar treatment, growth inhibition rate, soybean; assay type: in vivo; conditions: 31 g/ha active ingredient, visually observed 17th to 23rd day after application
Procedure, shortened: as §2

barnyardgrass = assay: Test Example 2: soil application on the day after sowing, growth inhibition rate, barnyardgrass; assay type: in vivo, Echinochloa crus-galli L.; conditions: 250 g/ha active ingredient, observed on 19th to 24th day; for inhibition at 250 g/ha: Echinochloa crus-galli
Procedure, shortened: (§4)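 Seeds were sown in upland field soil in pots, and on the following day compounds formulated as wettable powders or emulsifiable concentrates were diluted in water (500 liter per hectare) and sprayed onto the soil at prescribed active-ingredient doses. Growth was scored visually 19–24 days later, 0 = untreated to 100% = complete kill.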

crabgrass = assay: Test Example 2: soil application on the day after sowing, growth inhibition rate, crabgrass; assay type: in vivo, Digitaria sanguinalis L.; conditions: 250 g/ha active ingredient, observed on 19th to 24th day; for inhibition at 250 g/ha: Digitaria sanguinalis
Procedure, shortened: as §4

greenfoxtail = assay: Test Example 2: soil application on the day after sowing, growth inhibition rate, greenfoxtail; assay type: in vivo, Setaria viridis L.; conditions: 250 g/ha active ingredient, observed on 19th to 24th day; for inhibition at 250 g/ha: Setaria viridis
Procedure, shortened: as §4

redroot pigweed = assay: Test Example 2: soil application on the day after sowing, growth inhibition rate, redroot pigweed; assay type: in vivo, Amaranthus retroflexus L.; conditions: 250 g/ha active ingredient, observed on 19th to 24th day; for inhibition at 250 g/ha: Amaranthus retroflexus
Procedure, shortened: as §4

prickly sida = assay: Test Example 2: soil application on the day after sowing, growth inhibition rate, prickly sida; assay type: in vivo, Sida spinosa L.; conditions: 250 g/ha active ingredient, observed on 19th to 24th day; for inhibition at 250 g/ha: Sida spinosa
Procedure, shortened: as §4

velvetleaf = assay: Test Example 2: soil application on the day after sowing, growth inhibition rate, velvetleaf; assay type: in vivo, Abutilon theophrasti MEDIC.; conditions: 250 g/ha active ingredient, observed on 19th to 24th day; for inhibition at 250 g/ha: Abutilon theophrasti
Procedure, shortened: as §4

rice = assay: Test Example 2: soil application on the day after sowing, growth inhibition rate, rice; assay type: in vivo, Oryza sativa L.; conditions: 250 g/ha active ingredient, observed on 19th to 24th day; for inhibition at 250 g/ha: Oryza sativa
Procedure, shortened: as §4

wheat = assay: Test Example 2: soil application on the day after sowing, growth inhibition rate, wheat; assay type: in vivo, Triticum spp.; conditions: 250 g/ha active ingredient, observed on 19th to 24th day; for inhibition at 250 g/ha: Triticum aestivum
Description: Upland field soil was put into a 1/170,000 hectare pot, and seeds of various plants (barnyardgrass, crabgrass, greenfoxtail, redroot pigweed, prickly sida, velvetleaf, rice, wheat, corn and soybean) were sown. On the day after sowing, wettable powders or emulsifiable concentrates of the compounds of the present invention prepared in accordance with a conventional preparation method, were weighed so that the active ingredients became the prescribed amounts, and diluted with water in an amount corresponding to 500 liter per 1 hectare, followed by soil application with a small sprayer. On the 19th to 24th day after the application, the state of growth of the respective plants was visually observed, and the herbicidal effect was evaluated in accordance with a growth inhibition rate (%) of from 0 (equivalent to the non-treated area) to 100% (complete kill).

corn = assay: Test Example 2: soil application on the day after sowing, growth inhibition rate, corn; assay type: in vivo, Zea mays L.; conditions: 250 g/ha active ingredient, observed on 19th to 24th day; for inhibition at 250 g/ha: Zea mays
Procedure, shortened: as §4

soybean = assay: Test Example 2: soil application on the day after sowing, growth inhibition rate, soybean; assay type: in vivo, Glycine max Merr.; conditions: 250 g/ha active ingredient, observed on 19th to 24th day; for inhibition at 250 g/ha: Glycine max
Procedure, shortened: as §4

Row | SMILES | Growth inhibition rate (%) Barnyardgrass [1] [%] | Growth inhibition rate (%) Crabgrass [2] [%] | Growth inhibition rate (%) Greenfoxtail [3] [%] | Growth inhibition rate (%) redroot pigweed [4] [%] | Growth inhibition rate (%) Prickly sida [5] [%] | Growth inhibition rate (%) Velvetleaf [6] [%] | Growth inhibition rate (%) Rice (rice (Oryza sativa L.)) [%] | Growth inhibition rate (%) Wheat (wheat (Triticum spp.)) [%] | Growth inhibition rate (%) Corn (corn (Zea mays L.)) [%] | Growth inhibition rate (%) Soybean [7] [%] | Growth inhibition rate (%) Barnyardgrass (barnyardgrass) [%] | Growth inhibition rate (%) Crabgrass (crabgrass) [%] | Growth inhibition rate (%) Greenfoxtail (greenfoxtail) [%] | Growth inhibition rate (%) redroot pigweed (redroot pigweed) [%] | Growth inhibition rate (%) Prickly sida (prickly sida) [%] | Growth inhibition rate (%) Velvetleaf (velvetleaf) [%] | Growth inhibition rate (%) Rice (rice) [%] | Growth inhibition rate (%) Wheat (wheat) [%] | Growth inhibition rate (%) Corn (corn) [%] | Growth inhibition rate (%) Soybean (soybean) [%] | also measured
1 | CCSC(=O)Oc1c(C(=O)c2ccc(S(C)(=O)=O)c(OCCOC)c2Cl)cnn1C [compound 216] | 100 | 100 | 98 | 100 | 50 | 98 | 70 | 0 | 10 | 95 | 95 | 100 | 100 | 100 | 80 | 90 | 80 | 0 | 0 | 0 | 
2 | CCSC(=O)Oc1c(C(=O)c2ccc(S(C)(=O)=O)c(C(=O)OC)c2C)cnn1C [Compound No. 1, 5-(ethylthio)carbonyloxy-1-methylpyrazol-4-yl 3-(methoxycarbonyl)-2-methyl-4-(methylsulfonyl)phenyl ketone] |  |  |  | 100 | 70 |  |  |  |  |  |  |  |  |  |  |  |  |  |  |  | pest or weed control at 31 g/ha [1]: 90%; pest or weed control at 31 g/ha [2]: 80%; pest or weed control at 31 g/ha [3]: 100%; pest or weed control at 31 g/ha [6]: 100%; pest or weed control at 31 g/ha (rice (Oryza sativa L.)): 80%; pest or weed control at 31 g/ha (wheat (Triticum spp.)): 0%; pest or weed control at 31 g/ha (corn (Zea mays L.)): 10%; inhibition at 250 g/ha (barnyardgrass): 100%; inhibition at 250 g/ha (crabgrass): 100%; inhibition at 250 g/ha (greenfoxtail): 100%; inhibition at 250 g/ha (redroot pigweed): 100%; inhibition at 250 g/ha (prickly sida): 60%; inhibition at 250 g/ha (velvetleaf): 60%; inhibition at 250 g/ha (rice): 95%; inhibition at 250 g/ha (wheat): 10%; inhibition at 250 g/ha (corn): 0%; inhibition at 250 g/ha (soybean): 75%
3 | CCSC(=O)Oc1c(C(=O)c2ccc(S(C)(=O)=O)c(OCCOC)c2C)cnn1C [Compound No. 55, 5-(ethylthio)carbonyloxy-1-methylpyrazol-4-yl 3-(2-methoxyethoxy)-2-methyl-4-(methylsulfonyl)phenyl ketone] |  |  |  | 95 |  |  |  |  |  | 95 |  |  |  |  |  |  |  |  |  |  | pest or weed control at 31 g/ha [1]: 100%; pest or weed control at 31 g/ha [2]: 100%; pest or weed control at 31 g/ha [3]: 100%; pest or weed control at 31 g/ha [6]: 100%; pest or weed control at 31 g/ha (rice (Oryza sativa L.)): 60%; pest or weed control at 31 g/ha (wheat (Triticum spp.)): 10%; pest or weed control at 31 g/ha (corn (Zea mays L.)): 40%; inhibition at 250 g/ha (barnyardgrass): 100%; inhibition at 250 g/ha (crabgrass): 100%; inhibition at 250 g/ha (greenfoxtail): 100%; inhibition at 250 g/ha (redroot pigweed): 100%; inhibition at 250 g/ha (prickly sida): 70%; inhibition at 250 g/ha (velvetleaf): 95%; inhibition at 250 g/ha (rice): 70%; inhibition at 250 g/ha (wheat): 0%; inhibition at 250 g/ha (corn): 0%; inhibition at 250 g/ha (soybean): 0%
4 | CCSC(=O)Oc1c(C(=O)c2ccc(S(C)(=O)=O)c(CC(=O)OC)c2C)cnn1C [compound 64] | 100 |  | 65 | 80 | 60 | 85 | 70 | 0 | 0 |  | 90 | 95 | 50 | 80 | 60 | 30 | 70 | 0 | 0 | 0 | 
5 | CCSC(=O)Oc1c(C(=O)c2ccc(S(C)(=O)=O)c(C3=NOCC3)c2C)cnn1C [Compound No. 39, 5-(ethylthio)carbonyloxy-1-methylpyrazol-4-yl 2-methyl-4-(methylsulfonyl)-3-(4,5-dihydroisoxazol-3-yl)phenyl ketone] |  |  |  | 80 |  |  |  |  |  | 95 |  |  |  |  |  |  |  |  |  |  | pest or weed control at 31 g/ha [1]: 95%; pest or weed control at 31 g/ha [2]: 90%; pest or weed control at 31 g/ha [3]: 95%; pest or weed control at 31 g/ha [6]: 90%; pest or weed control at 31 g/ha (rice (Oryza sativa L.)): 95%; pest or weed control at 31 g/ha (wheat (Triticum spp.)): 40%; pest or weed control at 31 g/ha (corn (Zea mays L.)): 0%; inhibition at 250 g/ha (barnyardgrass): 70%; inhibition at 250 g/ha (crabgrass): 100%; inhibition at 250 g/ha (greenfoxtail): 80%; inhibition at 250 g/ha (redroot pigweed): 100%; inhibition at 250 g/ha (prickly sida): 70%; inhibition at 250 g/ha (velvetleaf): 60%; inhibition at 250 g/ha (rice): 80%; inhibition at 250 g/ha (wheat): 0%; inhibition at 250 g/ha (corn): 10%; inhibition at 250 g/ha (soybean): 0%
6 | CCSC(=O)Oc1c(C(=O)c2ccc(S(C)(=O)=O)c(OC(C)C)c2C)cnn1C [compound 37] | 95 | 80 | 100 | 100 |  | 95 | 70 | 0 | 0 | 70 | 60 | 80 | 60 | 50 | 10 | 30 | 10 | 0 | 0 | 0 | 
7 | CCOc1c(S(C)(=O)=O)ccc(C(=O)c2cnn(C)c2OC(=O)SCC)c1C [compound 36] | 100 | 98 | 100 | 100 | 100 | 100 | 70 | 50 | 10 |  | 100 | 100 | 100 | 100 | 60 | 50 | 80 | 0 | 0 | 30 | 
